# Reference: publication PMC3022373 (Journal of medicinal chemistry, 2010)
# Target: T1, hiCE (Homo sapiens, UniProt O00748)
# T1 sequence (O00748 27-559): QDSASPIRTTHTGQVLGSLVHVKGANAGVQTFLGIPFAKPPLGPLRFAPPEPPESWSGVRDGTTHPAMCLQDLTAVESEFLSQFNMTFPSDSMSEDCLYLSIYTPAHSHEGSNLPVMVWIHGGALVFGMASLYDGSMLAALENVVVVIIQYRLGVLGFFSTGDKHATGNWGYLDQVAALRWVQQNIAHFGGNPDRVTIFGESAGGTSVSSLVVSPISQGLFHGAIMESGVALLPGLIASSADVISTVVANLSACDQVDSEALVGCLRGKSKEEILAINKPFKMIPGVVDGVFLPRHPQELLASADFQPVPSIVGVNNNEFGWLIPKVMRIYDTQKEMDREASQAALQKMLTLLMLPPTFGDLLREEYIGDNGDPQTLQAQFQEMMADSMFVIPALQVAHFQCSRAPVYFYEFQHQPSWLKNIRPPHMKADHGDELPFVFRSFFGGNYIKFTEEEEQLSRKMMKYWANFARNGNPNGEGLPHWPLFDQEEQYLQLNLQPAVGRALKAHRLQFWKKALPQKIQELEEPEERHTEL
# Format: biochemical
row,SMILES,selectivity in favor of hiCE inhibition versus hCE1 [fold]
1,O=C(C(=O)c1ccccn1)c1cccc(NC(=O)c2ccc(Cl)cc2Cl)c1 [15d],≥ 100
2,O=C(Nc1cccc(C(=O)C(=O)c2ccccn2)c1)c1ccc(C(F)(F)F)cc1 [15f],≥ 100
